We go through 7 compounds from patent publication US10150764B2, “Substituted benzene compounds” (Epizyme, Inc., priority 2013, dated 2018).

For assay [1], the target named is wild-type EZH2 (PRC2 enzyme) (Homo sapiens (Human), UniProt Q15910). The assay can be described thus: PRC2 enzyme assay on peptide substrate, wild-type EZH2 (H3K27me0 peptide, 3H-SAM Flashplate). It counts as biochemical. The conditions noted are these: wild-type PRC2 4 nM, read-out: WT EZH2 IC50.
In assay [2] the target is EZH2 Y641F mutant (PRC2 enzyme) (Homo sapiens (Human), UniProt Q15910, Y641F). The assay can be described thus: PRC2 enzyme assay on peptide substrate, EZH2 Y641F mutant (H3K27me2 peptide, 3H-SAM Flashplate). It counts as biochemical. The following applies: Y641F mutant PRC2 4 nM.
Sequence of EZH2 Y641F mutant (PRC2 enzyme) (Q15910 whole entry Y641F): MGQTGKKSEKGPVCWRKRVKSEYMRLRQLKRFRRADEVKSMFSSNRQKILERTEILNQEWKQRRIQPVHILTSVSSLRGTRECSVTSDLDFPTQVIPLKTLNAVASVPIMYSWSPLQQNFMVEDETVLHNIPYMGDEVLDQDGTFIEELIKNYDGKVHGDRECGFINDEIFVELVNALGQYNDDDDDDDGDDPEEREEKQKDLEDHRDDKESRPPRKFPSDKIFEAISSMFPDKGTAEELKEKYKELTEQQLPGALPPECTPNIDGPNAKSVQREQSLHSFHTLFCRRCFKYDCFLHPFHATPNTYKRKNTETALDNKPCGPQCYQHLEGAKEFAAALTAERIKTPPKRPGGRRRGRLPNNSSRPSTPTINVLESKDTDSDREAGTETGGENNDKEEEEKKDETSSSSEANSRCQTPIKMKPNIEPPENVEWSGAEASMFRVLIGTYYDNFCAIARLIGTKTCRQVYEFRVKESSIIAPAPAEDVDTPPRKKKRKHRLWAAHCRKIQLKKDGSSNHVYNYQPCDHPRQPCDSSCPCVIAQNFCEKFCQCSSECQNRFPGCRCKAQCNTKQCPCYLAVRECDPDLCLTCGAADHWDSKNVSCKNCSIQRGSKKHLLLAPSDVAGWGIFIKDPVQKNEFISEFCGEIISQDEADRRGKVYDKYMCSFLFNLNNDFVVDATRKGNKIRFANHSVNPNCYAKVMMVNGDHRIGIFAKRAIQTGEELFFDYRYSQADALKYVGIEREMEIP
Sequence of EZH2 Y641F mutant (PRC2 enzyme) (O75530 whole entry partner): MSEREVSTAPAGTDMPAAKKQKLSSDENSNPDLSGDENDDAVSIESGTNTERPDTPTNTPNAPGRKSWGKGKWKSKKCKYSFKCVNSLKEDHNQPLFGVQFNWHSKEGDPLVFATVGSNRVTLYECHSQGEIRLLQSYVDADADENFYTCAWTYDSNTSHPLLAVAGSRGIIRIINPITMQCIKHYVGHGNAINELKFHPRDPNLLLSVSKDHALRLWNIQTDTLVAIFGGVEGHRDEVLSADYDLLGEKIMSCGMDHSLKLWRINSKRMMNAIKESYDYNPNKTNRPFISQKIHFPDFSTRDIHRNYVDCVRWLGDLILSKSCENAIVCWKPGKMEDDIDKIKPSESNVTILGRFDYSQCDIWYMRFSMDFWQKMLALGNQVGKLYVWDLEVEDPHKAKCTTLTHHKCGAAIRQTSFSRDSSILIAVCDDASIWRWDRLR
Sequence of EZH2 Y641F mutant (PRC2 enzyme) (Q15022 whole entry partner): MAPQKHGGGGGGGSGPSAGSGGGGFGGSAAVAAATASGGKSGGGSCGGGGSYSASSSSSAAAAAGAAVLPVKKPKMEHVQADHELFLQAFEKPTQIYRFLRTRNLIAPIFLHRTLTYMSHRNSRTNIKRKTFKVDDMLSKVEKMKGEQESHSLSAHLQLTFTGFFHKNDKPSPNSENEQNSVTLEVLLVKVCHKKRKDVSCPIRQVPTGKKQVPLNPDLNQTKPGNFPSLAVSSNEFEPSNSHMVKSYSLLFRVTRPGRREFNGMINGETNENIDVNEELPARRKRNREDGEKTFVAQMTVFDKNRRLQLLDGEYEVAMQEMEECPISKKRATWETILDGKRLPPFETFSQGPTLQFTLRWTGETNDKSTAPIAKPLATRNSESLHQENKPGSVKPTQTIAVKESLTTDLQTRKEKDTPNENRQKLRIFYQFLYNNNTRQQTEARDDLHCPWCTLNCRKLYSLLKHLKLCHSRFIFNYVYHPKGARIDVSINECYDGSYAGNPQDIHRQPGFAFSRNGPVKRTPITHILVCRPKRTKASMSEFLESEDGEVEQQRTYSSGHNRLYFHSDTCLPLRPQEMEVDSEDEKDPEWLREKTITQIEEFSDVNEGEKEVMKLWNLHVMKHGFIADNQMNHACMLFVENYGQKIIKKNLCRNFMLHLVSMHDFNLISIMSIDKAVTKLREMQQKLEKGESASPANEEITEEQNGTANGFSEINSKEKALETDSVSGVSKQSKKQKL
Sequence of EZH2 Y641F mutant (PRC2 enzyme) (Q09028 whole entry partner): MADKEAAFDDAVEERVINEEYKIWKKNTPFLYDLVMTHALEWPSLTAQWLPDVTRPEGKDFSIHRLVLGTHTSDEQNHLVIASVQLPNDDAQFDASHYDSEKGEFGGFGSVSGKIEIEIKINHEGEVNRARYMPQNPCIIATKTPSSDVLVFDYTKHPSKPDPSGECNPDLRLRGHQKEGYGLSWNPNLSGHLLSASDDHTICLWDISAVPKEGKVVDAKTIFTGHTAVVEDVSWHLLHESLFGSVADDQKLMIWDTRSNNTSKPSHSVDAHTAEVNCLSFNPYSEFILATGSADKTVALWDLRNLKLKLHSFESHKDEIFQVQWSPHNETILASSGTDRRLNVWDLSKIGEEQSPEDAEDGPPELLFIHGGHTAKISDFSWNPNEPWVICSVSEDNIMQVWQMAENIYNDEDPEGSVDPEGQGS
Description: Human PRC2 enzymes were purified as 4-component enzyme complexes co-expressed in Spodoptera frugiperda (sf9) cells using a baculovirus expression system. […] The EED subunit contained an N-terminal FLAG tag that was used to purify the entire 4-component complex from sf9 cell lysates.
The assays were all performed in a buffer consisting of 20 mM bicine (pH=7.6), 0.5 mM DTT, 0.005% BSG and 0.002% Tween20, prepared on the day of use. […] DMSO (1 μL) was added to columns 11, 12, 23, 24, rows A-H for the maximum signal control, and SAH, a known product and inhibitor of PRC2 (1 μL) was added to columns 11, 12, 23, 24, rows I-P for the minimum signal control. A cocktail (40 μL) containing the wild-type PRC2 enzyme and H3K27me0 peptide or any of the Y641 mutant enzymes and H3K27me2 peptide was added by Multidrop Combi (Thermo). The compounds were allowed to incubate with PRC2 for 30 min at 25° C., then a cocktail (10 μL) containing a mixture of non-radioactive and ^3H-SAM was added to initiate the reaction (final volume=51 μL). […] The assays were stopped by the addition of non-radioactive SAM (10 μL) to a final concentration of 600 μM, which dilutes the ^3H-SAM to a level where its incorporation into the peptide substrate is no longer detectable. 50 of the reaction in the 384-well polypropylene plate was then transferred to a 384-well Flashplate and the biotinylated peptides were allowed to bind to the streptavidin surface for at least 1 h before being washed three times with 0.1% Tween20 in a Biotek ELx405 plate washer. The plates were then read in a PerkinElmer TopCount platereader to measure the quantity of ^3H-labeled peptide bound to the Flashplate surface, measured as disintegrations per minute (dpm) or alternatively, referred to as counts per minute (cpm).
Assay [3] has as its system H3K27me3 in WSU-DLCL2 cells. Briefly: WSU-DLCL2 methylation assay (H3K27me3 ELISA). It counts as cell-based, human. The conditions noted are these: H3K27me3 normalised to total H3. For orientation: An ELISA detects its analyte on a solid surface through an enzyme-linked reagent.
Where [4] appears, read: Homo sapiens, WSUDLCL2, 96 hours incubation.

Sequence of wild-type EZH2 (PRC2 enzyme) (Q15910 whole entry): as the sequence (Q15910 whole entry Y641F) above, with F641Y counted along it
Sequence of wild-type EZH2 (PRC2 enzyme) (O75530 whole entry partner): as the sequence (O75530 whole entry partner) above
Sequence of wild-type EZH2 (PRC2 enzyme) (Q15022 whole entry partner): as the sequence (Q15022 whole entry partner) above
Sequence of wild-type EZH2 (PRC2 enzyme) (Q09028 whole entry partner): as the sequence (Q09028 whole entry partner) above

What is called IC50 is the concentration that inhibits the measured activity by half. In the case of “5-chloro-3-(ethyl((trans)-4-((4-methoxybenzyl)(methyl)amino) cyclohexyl)amino)-2-methyl-N-((1-methyl-3-oxo-5-(piperidin-1-yl)-2,3-dihydro-1H-pyrazol-4-yl)methyl)benzamide [Compound 84]”, the IC50 in assay [1] was 1440 nM; in assay [2], 1220 nM; in assay [3] (96 hours incubation), 16700 nM.

Consider `CCN(c1cc(Cl)cc(C(=O)NCc2c(C)[nH]n(C)c2=O)c1C)[C@@H]1COC[C@H]1O` (relative stereo) [Compound 41, 5-chloro-N-((2,5-dimethyl-3-oxo-2,3-dihydro-1H-pyrazol-4-yl)methyl)-3-(ethyl((trans)-4-hydroxytetrahydrofuran-3-yl)amino)-2-methylbenzamide], for which the IC50 in assay [1] was 37200 nM; in assay [2], 26200 nM; in assay [3] (setting [4]), over 50000 nM.

Regarding `CCN(c1cc(-c2ccc(OCCOC)cc2)cc(C(=O)NCc2c(C)[nH][nH]c2=O)c1C)[C@H]1CC[C@H](N(C)C)CC1` [Compound 30, 5-(((trans)-4-(dimethylamino)cyclohexyl)(ethyl)amino)-4′-(2-methoxyethoxy)-4-methyl-N-((5-methyl-3-oxo-2,3-dihydro-1H-pyrazol-4-yl)methyl)-[1,1′-biphenyl]-3-carboxamide], the IC50 was 24 nM in assay [1], 7 nM in assay [2] and 29000 nM in assay [3] (setting [4]).

`CCN(c1cc(Cl)cc(C(=O)NCc2c(C)n(C)[nH]c2=O)c1C)[C@H]1CC[C@H](N(C)CCOC)CC1` [Compound 55, 5-chloro-N-((1,5-dimethyl-3-oxo-2,3-dihydro-1H-pyrazol-4-yl)methyl)-3-(ethyl((trans)-4-((2-methoxyethyl)(methyl)amino)cyclohexyl)amino)-2-methylbenzamide]: the IC50 in assay [1] worked out at 695 nM; in assay [2], 418 nM; in assay [3] (setting [4]), 30600 nM.

In the case of `CCn1nc(OC)c(CNC(=O)c2cc(Cl)cc(N(CC)[C@H]3CC[C@H](N(C)Cc4cccc(OC)c4)CC3)c2C)c1C` [Compound 62, 5-chloro-3-(ethyl((trans)-4-((3-methoxybenzyl)-(methyl)-amino)-cyclohexyl)-amino)-N-((1-ethyl-3-methoxy-5-methyl-1H-pyrazol-4-yl)methyl)-2-methylbenzamide], the results for the IC50 in assay [1], in assay [2] and in assay [3] (setting [4]) were 745 nM, 193 nM and over 50000 nM, respectively.

With `CCN(c1cc(Cl)cc(C(=O)NCc2c(C)nn(C)c2OC)c1C)[C@H]1CC[C@H](N(C)C)CC1` [Compound 91, 5-chloro-N-((5-methoxy-1,3-dimethyl-1H-pyrazol-4-yl)methyl)-3-(((trans)-4-(dimethylamino)cyclohexyl)(ethyl)amino)-2-methylbenzamide], the IC50 was 7450 nM in assay [1], 1170 nM in assay [2] and over 50000 nM in assay [3] (setting [4]).

Consider `CCN(c1cc(Cl)cc(C(=O)NCc2c(N3CCCCC3)n(C)[nH]c2=O)c1C)[C@H]1CC[C@H](N(C)C)CC1` [Compound 93, 5-chloro-3-(ethyl[(trans)-4-(dimethylamino)cyclohexyl]amino)-2-methyl-N-([1-methyl-3-oxo-5-(piperidin-1-yl)-2,3-dihydro-1H-pyrazol-4-yl]methyl)benzamide], for which the IC50 came to 9.71 nM in assay [1], 14.4 nM in assay [2] and 3550 nM in assay [3] (setting [4]).
